Legend:
Format in all cases: cell-based
[1] = system: Calu-1 cells; assay: Anti-proliferation (viability) of NSCLC Calu-1 cells, 3 days (Table 7, FIG. 2B); conditions: Homo sapiens, 72 h; Calu-1 cells, 3 days, 10-point serial dilution; read-out: GI IC50 in Calu-1
Procedure, shortened: (§1)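 Viability is read after treatment with compounds titrated over ten serial dilution points, with exposure lasting three days for the NSCLC line and six days for the breast cancer line.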

[2] = system: T47D cells; assay: Anti-proliferation (viability) of ER+ breast cancer T47D cells, 6 days (Table 7, FIG. 2B); conditions: Homo sapiens, 144 h; T47D cells, 6 days, 10-point serial dilution; read-out: GI IC50 in T47D
Procedure, shortened: as §1

[3] = system: MCF7 cells; assay: Anti-proliferation (viability) of MCF7 cells (Table 7, FIG. 2B); conditions: Homo sapiens, MCF7, MCF7 cells, 3-6 days, 10-point serial dilution; read-out: GI IC50 in MCF-7
[4] = target: T1, CDK4 (Homo sapiens, UniProt P11802+Q16531); assay: CDK4 percentage degradation in Calu-1 cells (Table 6); set-up: Cells that express cyclin D1-3 and CDK4/6 proteins were treated with heterobifunctional compounds; endogenous in cells; host or cells: Calu-1; conditions: 16 hours; for inhibition at 0.04 µM: 40 nM; for inhibition at 0.2 µM: 200 nM
Procedure, shortened: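 Calu-1 cells exposed to heterobifunctional compounds at 40 nM or 200 nM for 16 h. Cyclin D1 and CDK4 levels measured by Western blot of RIPA lysates (BCA-normalised loading), bands quantified by densitometry and expressed as percentage degradation.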

[5] = system: CCND1, CCND3, and CDK4 in Calu-1 cells; assay: Immunoblot of CCND1, CCND3 and CDK4 protein levels in Calu-1 cells (FIG. 1A, 4 hours); conditions: Calu-1 cells, CDK4/6 inhibitor
Description: (§2) Specific exemplary heterobifunctional compounds were characterized in Calu-1, MCF7, T47D and other cells. Cells that express cyclin D1-3 and CDK4/6 proteins were treated with heterobifunctional compounds disclosed herein at indicated concentrations. MCF7 cells were deprived of serum for 2 hours followed by the treatment with heterobifunctional compounds. Cells were collected, lysed and subject to immunoblotting using an antibody specific to CCND1, CCND2, CCND3, CDK4, or FoxM1, cyclin A2, or phosphorylated Rb (S807/811) proteins. Tubulin or GAPDH was used as the loading control. DMSO treatment was used as the negative control.

[6] = system: CCND1, CCND3, and CDK4 in MCF7 cells; assay: Immunoblot of CCND1, CCND3 and CDK4 protein levels in MCF7 cells under serum starvation (FIG. 1B, 24 hours); conditions: MCF7 cells, CDK4/6 inhibitor
Description: as §2

[7] = system: T47D cells; assay: Flow cytometric analysis of Annexin V/7-AAD stained T47D cells (apoptosis), 6 days (FIG. 3A)
Description: (§3) T47D cells were treated with DMSO, palbociclib, heterobifunctional compound CPD-10 for 6 days at doses approximating IC50and IC90 concentrations as indicated (FIG. 3A). HCC1428 cells were treated with DMSO, palbociclib, heterobifunctional compound CPD-10, or its negative control compound CPD-143 for 6 days at doses approximating IC90 concentrations as indicated (FIG. 3B). Cells were harvested by trypsinization, staining was carried out using the Annexin V Apoptosis Detection Kit. The percentages of early apoptotic (Annexin V^+7-AAD^−, lower right quadrant), late apoptotic (Annexin V^+7-AAD^+, upper right quadrant) and necrotic cells (Annexin V^−7-AAD^+, upper left quadrant) are indicated on dot plots.

[8] = system: HCC1428 cells; assay: Flow cytometric analysis of Annexin V/7-AAD stained HCC1428 cells (apoptosis), 6 days (FIG. 3B); conditions: HCC1428; 1 μM; 6 days
Description: as §3

[9] = system: T47D palbo-resistant cells; assay: CellTiter-Lumi cell viability assay, T47D palbo-resistant cells, 6 days (FIG. 4); conditions: Homo sapiens, 144 h
Description: Furthermore, we developed one ER^+ breast cancer T47D model with acquired resistance after long period of treatment with 1 μM palbociclib (over IC90). Cells were deemed resistant when growing in the presence of palbo at the same rate as parental cells. Palbo resistance was determined by CellTiter-Lumi cell viability assay (FIG. 4, IC50>10,000 nM).

[10] = system: CCND1; assay: Immunoblotting of CCND1 protein level in Calu-1 and MCF7 cells (FIG. 1A-1B)
Description: (§4) Calu-1 cells were treated with heterobifunctional compound CPD-10, or CDK4/6 inhibitor palbociclib at indicated concentrations for 4 hours (FIG. 1A). MCF7 cells were deprived of serum for 2 hours followed by treatment with CPD-10, or palbociclib at indicated concentrations for 24 hours (FIG. 1B).
(§5) Antibody and Reagent Anti-cyclin D1 (29785), anti-cyclin D2 (3741S), anti-cyclin D3 (2936S), anti-CDK4 (127905), anti-CDK6 (3136S), anti-phospho-Rb (8516S), anti-FoxM1 (54365), anti-cyclinA2(4656S), anti-vinculin antibody (187995) antibodies were purchased from Cell Signaling Technology. HRP-conjugated anti-α-tubulin antibody and anti-α-GAPDH antibody were purchased from GNI. Media, and other cell culture reagents were purchased from Thermo Fisher Scientific. CellTiter-Glo Luminescent Assay kit was purchased from Promega.
(§6) Calu-1, T47D, MCF7, HCC1428 and other cells were cultured at 37° C. with 5% CO2 in RPMI 1640 or DMEM medium supplemented with 10% fetal bovine serum. Cells were authenticated using the short tandem repeat (STR) assays. Mycoplasma test results were negative. For palbo-resistant cell model, T47D cells were cultured long-term to resistance in the presence of 1 μM Palbociclib. Cells were deemed resistant when growing in the presence of Palbo at the same rate as parental cells.
(§7) Cultured cells were washed with cold PBS once and lysed in cold RIPA buffer supplemented with protease inhibitors and phosphatase inhibitors (Beyotime Biotechnology). The solutions were then incubated at 4 ? for 30 min with gentle agitation to fully lysed cells. Cell lysates were centrifuged at 13,000 rpm for 10 min at 4 ? and pellets were discarded. Total protein concentrations in the lysates were determined following BCA assays (Beyotime Biotechnology). Cell lysates were mixed with Laemmli loading buffer and heated at 99° C. for 5 min. Proteins were resolved on SDS-PAGE and visualized using Western ECL Substrate kits on a ChemiDoc MP Imaging system (Bio-Rad). Protein bands were quantitated using the Image Lab software provided by Bio-Rad.

[11] = system: CCND3; assay: Immunoblotting of CCND3 protein level in Calu-1 and MCF7 cells (FIG. 1A-1B); conditions: Calu-1 cells, 4 hours
Description: as §4, §5, §6, §7

[12] = system: T47D cells; assay: Annexin V apoptosis flow cytometry, T47D (FIG. 3A); conditions: doses approximating IC50 and IC90, 6 days
Description: as §3, with “IC50 and” for “IC50and”, “Kit.” for “Kit. The percentages of early apoptotic (Annexin V^+7-AAD^−, lower right quadrant), late apoptotic (Annexin V^+7-AAD^+, upper right quadrant) and necrotic cells (Annexin V^−7-AAD^+, upper left quadrant) are indicated on dot plots.”
(§8) Assays were performed on the CytoFLEX Cytometer (Beckman Coulter), and data were analyzed using CytExpert software. For cell death and apoptosis analysis, cells were harvested by trypsinization, staining was carried out using the Annexin V Apoptosis Detection Kit (BD Biosciences). Briefly, cells were resuspended in 1× binding buffer and incubated with fluorochrome-conjugated Annexin V and 7-AAD for 15 min in darkness at room temperature.

[13] = system: HCC1428 cells; assay: Annexin V apoptosis flow cytometry, HCC1428 (FIG. 3B); conditions: HCC1428, dose approximating IC90, 6 days
Description: as §3, with “IC50 and” for “IC50and”, “Kit.” for “Kit. The percentages of early apoptotic (Annexin V^+7-AAD^−, lower right quadrant), late apoptotic (Annexin V^+7-AAD^+, upper right quadrant) and necrotic cells (Annexin V^−7-AAD^+, upper left quadrant) are indicated on dot plots.”
as §8

[14] = target: T1, CDK4; assay: Immunoblotting of CDK4 protein level in Calu-1 and MCF7 cells (FIG. 1A-1B); set-up: Cells that express cyclin D1-3 and CDK4/6 proteins were treated with heterobifunctional compounds; endogenous in cells; host or cells: Calu-1; conditions: Calu-1 cells, 4 hours
Description: as §4, §5, §6, §7

T1 sequence (P11802 2-303 limits assumed): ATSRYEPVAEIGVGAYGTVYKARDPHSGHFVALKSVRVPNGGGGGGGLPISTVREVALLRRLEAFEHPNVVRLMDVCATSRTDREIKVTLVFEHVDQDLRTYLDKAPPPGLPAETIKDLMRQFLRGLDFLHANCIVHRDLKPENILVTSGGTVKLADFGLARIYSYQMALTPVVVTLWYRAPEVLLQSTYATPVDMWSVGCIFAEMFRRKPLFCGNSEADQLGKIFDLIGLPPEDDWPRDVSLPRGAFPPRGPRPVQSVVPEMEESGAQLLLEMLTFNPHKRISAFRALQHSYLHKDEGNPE
T1 sequence (P24385 whole entry partner): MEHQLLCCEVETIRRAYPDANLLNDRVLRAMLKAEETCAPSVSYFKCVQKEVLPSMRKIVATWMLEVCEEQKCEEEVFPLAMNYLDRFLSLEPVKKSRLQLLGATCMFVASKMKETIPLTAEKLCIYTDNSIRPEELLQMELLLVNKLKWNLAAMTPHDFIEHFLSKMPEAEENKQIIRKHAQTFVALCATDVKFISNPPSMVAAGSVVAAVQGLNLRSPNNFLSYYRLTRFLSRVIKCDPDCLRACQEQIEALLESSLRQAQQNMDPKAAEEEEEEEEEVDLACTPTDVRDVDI
T1 sequence (Q16531 2-1140 limits assumed): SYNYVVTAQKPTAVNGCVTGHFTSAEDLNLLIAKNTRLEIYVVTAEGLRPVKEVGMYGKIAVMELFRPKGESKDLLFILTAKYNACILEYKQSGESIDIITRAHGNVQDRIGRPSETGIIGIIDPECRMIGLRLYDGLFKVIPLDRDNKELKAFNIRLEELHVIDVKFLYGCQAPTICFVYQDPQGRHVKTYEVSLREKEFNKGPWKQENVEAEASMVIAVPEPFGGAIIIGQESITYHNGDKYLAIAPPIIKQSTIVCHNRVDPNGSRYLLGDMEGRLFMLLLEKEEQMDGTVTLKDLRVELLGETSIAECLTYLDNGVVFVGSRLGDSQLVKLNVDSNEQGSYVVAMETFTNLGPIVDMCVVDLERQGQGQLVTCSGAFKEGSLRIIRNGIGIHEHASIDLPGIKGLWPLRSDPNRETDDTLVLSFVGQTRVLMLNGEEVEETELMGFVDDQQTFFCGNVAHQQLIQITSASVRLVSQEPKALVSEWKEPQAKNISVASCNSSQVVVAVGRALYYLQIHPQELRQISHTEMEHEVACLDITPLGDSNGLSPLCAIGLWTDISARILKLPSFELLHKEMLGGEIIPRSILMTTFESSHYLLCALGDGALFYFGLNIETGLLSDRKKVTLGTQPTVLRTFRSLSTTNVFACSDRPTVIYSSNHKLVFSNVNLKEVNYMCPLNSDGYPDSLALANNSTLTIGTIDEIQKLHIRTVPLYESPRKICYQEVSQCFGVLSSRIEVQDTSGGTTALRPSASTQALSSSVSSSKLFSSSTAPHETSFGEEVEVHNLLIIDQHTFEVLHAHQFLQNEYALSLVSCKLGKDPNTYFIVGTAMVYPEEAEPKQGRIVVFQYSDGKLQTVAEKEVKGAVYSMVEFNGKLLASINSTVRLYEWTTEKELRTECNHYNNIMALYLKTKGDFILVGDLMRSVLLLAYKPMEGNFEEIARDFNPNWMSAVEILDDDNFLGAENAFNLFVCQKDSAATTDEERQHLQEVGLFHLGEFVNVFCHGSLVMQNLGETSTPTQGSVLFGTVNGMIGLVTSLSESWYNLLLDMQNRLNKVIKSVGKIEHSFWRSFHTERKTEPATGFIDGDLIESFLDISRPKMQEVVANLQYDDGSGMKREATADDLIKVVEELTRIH

`CNc1ccc(C(=O)Nc2cn(C)c(C3CC3)n2)c(NC2CC3(CC(NC(=O)CN4CCN(c5ccc(Nc6ncc7c(C)c(C(C)=O)c(=O)n(C8CCCC8)c7n6)nc5)CC4)C3)C2)n1` (stereo not drawn) [CPD-135, 2-((6-(2-(4-(6-((6-Acetyl-8-cyclopentyl-5-methyl-7-oxo-7,8-dihydropyrido[2,3-d]pyrimidin-2-yl)amino)pyridin-3-yl)piperazin-1-yl)acetamido)spiro[3.3]heptan-2-yl)amino)-N-(2-cyclopropyl-1-methyl-1H-imidazol-4-yl)-6-(methylamino)nicotinamide] gave an IC50 [1] of 0.01 to 0.05 µM, an IC50 [2] of at least 0.1 µM and an IC50 [3] of under 0.05 µM. For the same compound, the inhibition at 0.04 µM [4] was 30 to 50% and the inhibition at 0.2 µM [4] was 50 to 80%.
`CNc1ccc(C(=O)Nc2ccc(N(C)C)nn2)c(NC2CCC(CCNC(=O)CN3CCN(c4ccc(Nc5ncc6c(C)c(C(C)=O)c(=O)n(C7CCCC7)c6n5)nc4)CC3)C2)n1` (stereo not drawn) [CPD-136, 2-((3-(2-(2-(4-(6-((6-Acetyl-8-cyclopentyl-5-methyl-7-oxo-7,8-dihydropyrido[2,3-d]pyrimidin-2-yl)amino)pyridin-3-yl)piperazin-1-yl)acetamido)ethyl)cyclopentyl)amino)-N-(6-(dimethylamino)pyridazin-3-yl)-6-(methylamino)nicotinamide] was tested, and the IC50 [1] was at most 0.01 µM, the IC50 [2] was 0.05 to 0.1 µM and the IC50 [3] was over 0.1 µM. It also gave an inhibition at 0.04 µM [4] of 50 to 80% and an inhibition at 0.2 µM [4] of 50 to 80%.
`CNc1ccc(C(=O)Nc2cccc(C)n2)c(NC2CC3(C2)CN(C(=O)CCN2CCN(c4ccc(Nc5ncc6c(C)c(C(C)=O)c(=O)n(C7CCCC7)c6n5)nc4)CC2)C3)n1` [CPD-155, 2-((2-(3-(4-(6-((6-acetyl-8-cyclopentyl-5-methyl-7-oxo-7,8-dihydropyrido[2,3-d]pyrimidin-2-yl)amino)pyridin-3-yl)piperazin-1-yl)propanoyl)-2-azaspiro[3.3]heptan-6-yl)amino)-6-(methylamino)-N-(6-methylpyridin-2-yl)nicotinamide] showed an IC50 [1] of at most 0.01 µM, an IC50 [2] of 0.05 to 0.1 µM and an IC50 [3] of over 0.1 µM. It also gave an inhibition at 0.04 µM [4] of 50 to 80% and an inhibition at 0.2 µM [4] of over 80%.
`CC(=O)c1c(C)c2cnc(Nc3ccc(N4CCNCC4)cn3)nc2n(C2CCCC2)c1=O` [Palbociclib, palbociclib, reference compound] was tested, and the “effect on CCND and CDK4 protein levels (result in words)” value [5] was “no significant effect”, the “effect on CCND1 protein levels (result in words)” value [6] was “accumulation of CCND1 protein levels” and the “Annexin V+ population” value ([7]; 100 nM) was 15.9%. For the same compound, the “Annexin V+ population” value ([7]; 1 μM) was 26.1%, the “Annexin V+ population” value [8] was 17.7% and the IC50 [9] was over 10 µM. For the same compound, the CCND1 protein level ([10]; Calu-1 cells, 4 hours) was “did not significantly change the levels of these proteins in Calu-1 cells”, the CCND1 protein level ([10]; MCF7 cells, serum deprived 2 hours, treated 24 hours) was “accumulated CCND1 protein levels in MCF7 cells” and the CCND3 protein level [11] was “did not significantly change the levels of these proteins in Calu-1 cells”. The cell apoptosis [12] was “much less effect on cell apoptosis”, the cell apoptosis [13] was “much less effect on cell apoptosis” and the CDK4 protein level [14] was “did not significantly change the levels of these proteins in Calu-1 cells”.
